Legend:
DR4 = test: Association of endogenous MADD with DR4 in HeLa cells (immunoprecipitation); type: cell-based; conditions: LY 10 μM 1 h
Method: (A) Phosphorylation status of MADD could influence its binding to DR4. HEK293 cells were transfected with wtMADD or MADD mutants. 36 h after transfection, the cells were harvested for immunoprecipitation using an anti-DR4 antibody followed by immunoblotting using an anti-YFP antibody to detect exogenous MADD. The membrane was reprobed with an anti-DR4 antibody to show the protein loading. (B) PI3K can influence the association of exogenous MADD with DR4. HEK293 cells were transfected with wtMADD. Twenty four hours after transfection, the cells were serum starved for 20 h. Further, they were treated with LY (10 μM) for 1 h, IGF-1 (150 ng/ml) for 20 minutes. Immunoprecipitation using an anti-DR4 antibody was followed by immunoblotting using anti-YFP or anti-DR4 antibody. (C) Akt can influence exogenous MADD association with DR4. HEK293 cells were co-transfected with wtMADD along with DN-Akt or the empty vector pcDNA3.1 (pcDNA). Thirty six hours after transfection, the cells were harvested for immunoprecipitation using anti-DR4 antibody followed by immunoblotting with an anti-YFP or an anti-DR4 antibody. (D) PI3K can influence the association of endogenous MADD with DR4. HeLa cells were serum starved for 20 h, then treated with LY (10 μM) for 1 h, IGF-1 (150 ng/ml) for 20 minutes. […]
(§1) Immunoprecipitation. […] Immunoblots were prepared and analysed as described above.

14-3-3 = test: Association of wtMADD with 14-3-3 in HEK293 cells (immunoprecipitation); type: cell-based; conditions: LY 10 μM 1 h
Method: (A) Cellular distributions of wtMADD and MADD3A. HEK293 cells were transfected with wtMADD or MADD3A. 36 h after transfection, the cells were harvested and membrane andcytosolic fractions were prepared. Immunoblotting was performed using an anti-YFP antibody. Actin and caveolin-1 were used as loading controls. (B) […]. HEK293 cells were transfected with wtMADD or MADD3A. 36 h after transfection, the cells were harvested for immunoprecipitation using an anti-14-3-3 antibody followed by immunoblotting using an anti-YFP antibody for detecting exogenous MADD. The membrane was reprobed with an anti-14-3-3 antibody to show protein loading. (C) Inhibition of PI3K can lead to the association of wtMADD with 14-3-3. HEK293 cells were transfected with wtMADD. Cells were serum starved for 20 h and treated with LY (10 μM) for 1 h. Immunoprecipitation was performed using an anti-14-3-3 antibody, followed by immunoblotting using an anti-YFP or an anti-14-3-3 antibody. (D) Inhibition of Akt can result in the association of wtMADD with 14-3-3. HEK293 cells were co-transfected with wtMADD along with DN-Akt or pcDNA. […]
To explore the molecular mechanism by which nonphosphorylated MADD can trigger apoptosis, the cellular localization of phosphorylated and nonphosphorylated MADD was determined. […]
as §1

O=c1cc(N2CCOCC2)oc2c(-c3ccccc3)cccc12 [LY]
Interaction between endogenous MADD and DR4 (DR4): reduced
Binding of WtMADD to 14-3-3 (14-3-3): able to bind to 14-3-3 only in the presence of LY

Reference: patent publication US7910723B2, “IG20 splice variants therapeutics for cancer” (The Board of Trustees of the University of Illinois, priority 2006, dated 2011)
